Measurements taken from US11014902B2, “MYC G-quadruplex stabilizing small molecules and their use” (The United States of America, as represented by the …, priority 2015, dated 2021).
“Also recorded” adds a separate entry of the source.

Legend:
[1] = system: c-Myc protein in H1299 cells; assay: c-Myc protein expression by Western blot, H1299; assay type: cell-based, human; details: 10 μM
Experimental: The effect of Compound 23 on the expression of c-Myc protein in the human lung cancer cell lines H1299 and H157 was also assayed. H1299 and H157 cells were treated with 10 μM Compound 23 and c-Myc protein expression levels quantified by Western blot. In Compound 23-treated H1299 cells, c-Myc protein expression levels were approximately 55% compared to untreated control cells. In Compound 23-treated H157 cells, c-Myc protein expression levels were approximately 74% compared to untreated control cells.

[2] = system: mutant sequence incapable of G4 formation; assay type: biochemical; details: concentrations up to 100 μM
L363 cells = assay: Cell cycle analysis (propidium iodide staining); assay type: cell-based, human; details: 10 μM, after 72 hours
Experimental: (§1) To further explore the mechanism of action for the anticancer activity of Compound 1, cell cycle analysis was performed and monitored for potential induction of apoptotic death. […] Additionally, minimal increases in apoptosis were observed, by Annexin V/7-AAD staining and FACS analysis; only 13% of the cells were undergoing apoptosis (FIG. 5B).

myeloma cells = assay: Apoptosis (Annexin V/7-AAD staining, FACS); assay type: cell-based, human; details: 10 μM, 72 h
Experimental: as §1

[3] = system: c-MYC expression in CA46 cells; assay: c-MYC expression in CA46 Burkitt's Lymphoma line; assay type: cell-based, human; details: CA46 line lacking G4 control
From the text: To confirm a G4 specific mechanism of action in cells, the CA46 Burkitt's Lymphoma line was used in an exon-specific assay, as previously reported (Boddupally, et al., J Med Chem 2012, 55, 6076). For most cell lines, 85-90% of c-Myc expression is controlled by the G4 located prior to exons 1 and 2 in the promoter. Furthermore, expression predominantly occurs following exon 2, due to a thousand-fold increase in transcription from this allele (Brown, et al., J Biol Chem 2011, 286, 41018). The CA46 Burkitt's Lymphoma cell line is an exception to this trend due to the existence of a chromosome (8:14) (Pelicci, et al., Proc Natl Acad Sci USA 1986, 83, 2984) translocation between exons 1 and 2, leaving exon 1 under G4 control. As a result, c-Myc expression from exon 2 is G4 independent (FIG. 3B). This renders the overall cell line resistant to G4-mediated c-Myc inhibition at the RNA and protein level, and proliferation should be uninhibited by G4-stabilizing agents. […]
Cell pellets/tissue were homogenized and lysed in RIPA buffer on ice for 1 h. Protein was quantitated by BCA, and equal protein was loaded onto 4-12% Bis-Tris Gels (Novex), electrophoresed at 150 V for 75 min to obtain sufficient separation, and transferred via the iBlot system (Life Technologies). […]

wild type Pu27 sequence = assay: PCR stop assay, wild type sequence; assay type: biochemical; details: concentrations comparable to the Kd
[4] = molecular target: c-MYC G4 DNA (biotin-labeled Pu22 G-quadruplex); assay: Surface plasmon resonance (SPR); assay type: binding; details: SPR, 25° C.; read-out: equilibrium dissociation constant (Kd)
Experimental: In order to quantitatively assess the binding affinity of Compound 1 with the c-MYC G4, surface plasmon resonance (SPR) experiments (De Crescenzo, et al., Cell Mol Bioeng 2008, 1, 204) were performed using a biotinylated c-MYC G4 oligonucleotide. The oligonucleotide was immobilized to a streptavidin-coated chip, and binding was measured as a function of concentration. (FIG. 2). […] Furthermore, Compound 1 interacts with quadruplex DNA through a reversible binding interaction, and rapid, complete dissociation can be observed in the sensogram (FIG. 2C).
SPR experiments were performed with a Biacore T200 (GE Healthcare). […] The c-MYC DNA was then captured (FC2: 1245 Ru) on a Series S Sensor CM5 Chip (GE Healthcare) with amine-coupled Neutravidin (FC1: 4466 Ru, FC2: 5458 Ru). Single Cycle Kinetics (SCK) experiments were carried out with five injections of increasing concentration of analyte solution, which was prepared by a three-fold serial dilution of compound with buffer (10 mM Tris pH 7.5, 100 mM KCl, 3 mM EDTA) containing 3% DMSO. Binding analysis was conducted at a flow rate of 30 μL/min at 25° C. In each run, the association phase and the subsequent dissociation phase were monitored for 1 min and 10 min, respectively. Prior to each compound injection, three buffer injections were made. […]

Row | SMILES | c-Myc protein expression levels compared to untreated control cells [1] | effect on PCR amplification [2] | treated cells arrested in the G1 phase (L363 cells) [%] | cells undergoing apoptosis (myeloma cells) [%] | c-MYC expression / protein translation [3] | inhibition of PCR amplification (wild type Pu27 sequence) | Kd [4] [µM]
1 | Cc1oc2ccc(O)c(CN3CCCCCC3)c2c1C(=O)Nc1ccc(C(F)(F)F)cc1 [Compound 23] | approximately 55% |  |  |  |  |  | 
2 | Cc1ccc(NC(=O)c2c(C)oc3ccc(O)c(CN4CCCCCC4)c23)cc1 [Compound 1] |  | no effect | ~85 | 13 | resistant to inhibition of c-Myc protein translation; also recorded: negligible changes | dose-dependent inhibition | 4.5 ± 1.4
